Test systems include HCT-116 colon; NCI-H522 lung; SK-MEL-2 melanoma; SK-OV-3 ovarian; SR leukemia; SW-620 colon; TK-10 renal; HCT-15 colon; OVCAR-4 ovarian.
Holding throughout (assay): inhibition of tumour cell growth, NCI panel, 48 h

Where “and” joins values, the source holds several entries; their conditions need not be identical. Equal values may be shown once.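 Dose response: 5 concentrations. Exposure: 48 h. Format: 96-well plates. Endpoint: linear interpolation; highest concentration if not reached. GI50 is the concentration that inhibits growth by half. TGI denotes the concentration required for complete inhibition of growth.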

In the case of `ClC[Si]12OCCN(CCO1)CCO2`, the TGI in the assay with HCT-116 colon, with NCI-H522 lung, in the assay on SK-MEL-2 melanoma, with SK-OV-3 ovarian, in the assay on SR leukemia and in the assay on SW-620 colon was > 100 µM in each case. For the same molecule, the TGI in the assay on TK-10 renal was > 100 µM.

On to `CC1(C)OC(=O)C(=C2CC(c3ccccc3)c3ccccc32)C(=O)O1` (stereo unspecified), for which the TGI with HCT-116 colon, in the assay with HCT-15 colon, in the assay on NCI-H522 lung, in the assay on OVCAR-4 ovarian, in the assay with SK-OV-3 ovarian and with SR leukemia was > 100 µM each time. For the same molecule, the TGI in the assay with SW-620 colon and in the assay on TK-10 renal was > 100 µM each time.

Regarding `O=S(=O)(NCCCNc1cc(-c2cn(-c3ccccc3)nc2-c2cccc(O)c2)ccn1)c1ccc(Cl)cc1`, the GI50 in the assay with HCT-116 colon was 1.57 µM; in the assay on HCT-15 colon it was 1.34 µM; in the assay on NCI-H522 lung it was 1.88 µM; with OVCAR-4 ovarian, 1.67 µM; in the assay with SK-MEL-2 melanoma, 1.91 µM; with SK-OV-3 ovarian it was 2.35 µM. Moreover, the GI50 is 1.58 µM in the assay on SR leukemia, 1.62 µM with SW-620 colon and 3.16 µM with TK-10 renal. In addition, the TGI worked out at 3.29 µM in the assay with HCT-116 colon; 3.45 µM with HCT-15 colon; 4.06 µM with NCI-H522 lung; 5.92 µM in the assay with OVCAR-4 ovarian; 3.51 µM with SK-MEL-2 melanoma; 7.35 µM in the assay on SK-OV-3 ovarian. Further, the TGI in the assay on SR leukemia came out at 5.16 µM; with SW-620 colon, 3.54 µM; in the assay on TK-10 renal, 8.97 µM.

As for `COc1ccc(CC2C3=C(CCCC3)CCN2C)cc1` (stereo unspecified), the TGI in the assay on HCT-116 colon, with HCT-15 colon, in the assay on OVCAR-4 ovarian, in the assay on SK-MEL-2 melanoma, in the assay on SK-OV-3 ovarian and with SW-620 colon was > 100 µM in each case. Besides, in the assay with TK-10 renal, the TGI is > 100 µM.

As to `COc1ccc(/C(C)=N/NC(N)=S)c(OC)c1`, the TGI is > 100 µM with HCT-116 colon; > 100 µM with HCT-15 colon; 62.3 µM in the assay with NCI-H522 lung; > 100 µM in the assay with SK-MEL-2 melanoma; > 100 µM with SK-OV-3 ovarian; > 100 µM in the assay with SR leukemia. The TGI with SW-620 colon and with TK-10 renal was > 100 µM in each case.

As to `O=C1C(N2C(=O)c3ccccc3C2=O)CN1C(COCc1ccccc1)c1ccc(OCc2ccccc2)cc1` (stereo unspecified), the TGI in the assay on HCT-116 colon, in the assay on HCT-15 colon, with NCI-H522 lung, in the assay on OVCAR-4 ovarian, with SK-OV-3 ovarian and in the assay on SR leukemia was > 100 µM throughout. Besides, the TGI with SW-620 colon and in the assay on TK-10 renal was > 100 µM throughout.

With `CN(C)/C(N)=N/C(N)=S`, the TGI in the assay with HCT-116 colon, with HCT-15 colon, in the assay on NCI-H522 lung, in the assay with OVCAR-4 ovarian, in the assay on SK-OV-3 ovarian and with SR leukemia was > 100 µM in each case. Also, the TGI in the assay with SW-620 colon and in the assay with TK-10 renal was > 100 µM each time.

Regarding `O=C1OC2C(O)C(=O)OC2C1O` (stereo unspecified), the TGI in the assay on HCT-116 colon, with HCT-15 colon, in the assay with NCI-H522 lung, in the assay on OVCAR-4 ovarian, with SK-MEL-2 melanoma and in the assay on SK-OV-3 ovarian was > 100 µM in each case. The TGI in the assay with SR leukemia and in the assay with SW-620 colon was > 100 µM in each case.

In the case of `CCC(/C(=N\Nc1c(Cl)cc(Cl)cc1Cl)c1ccccc1)n1ccnc1C` (stereo unspecified), the TGI with HCT-116 colon is 20.8 µM; with HCT-15 colon, 24.4 µM; with NCI-H522 lung it was 18.1 µM; in the assay on OVCAR-4 ovarian, 30 µM; in the assay on SK-MEL-2 melanoma, 28.1 µM; in the assay on SK-OV-3 ovarian, 32.3 µM. In addition, the results for the TGI in the assay with SW-620 colon and in the assay on TK-10 renal were 35.7 µM and 28.2 µM, respectively.

As for `CC1=C(c2cc(C(=O)Nc3nccs3)nc(NC#N)n2)Sc2ccccc2N1`, the TGI in the assay with HCT-116 colon, in the assay on HCT-15 colon, with NCI-H522 lung, in the assay with OVCAR-4 ovarian, in the assay on SK-MEL-2 melanoma and with SR leukemia was > 100 µM each time. Also, the TGI in the assay with SW-620 colon and with TK-10 renal was > 100 µM in each case.

On to `COc1ccc(C(=O)O)c(Cc2ccc3ccccc3c2)c1`, for which the TGI in the assay on HCT-116 colon, in the assay with NCI-H522 lung, with OVCAR-4 ovarian, in the assay with SK-MEL-2 melanoma, in the assay with SK-OV-3 ovarian and with SR leukemia was > 100 µM in each case. The TGI in the assay with SW-620 colon and with TK-10 renal was > 100 µM each time.

Take `CC(=O)OCC1OC(n2c(-c3ccccc3)c(C)c(C)c(C#N)c2=S)C(OC(C)=O)C(OC(C)=O)C1OC(C)=O` (stereo unspecified): the GI50 was 11.4 µM and 40.1 µM in the assay with HCT-116 colon; 14.8 µM and 76.1 µM in the assay on OVCAR-4 ovarian; 35.5 µM and 14.6 µM in the assay on SK-MEL-2 melanoma; 13.2 µM and > 100 µM in the assay with SK-OV-3 ovarian; 32.3 µM and 95.3 µM with SR leukemia; 22.9 µM and > 100 µM in the assay with SW-620 colon. In the assay on TK-10 renal, the GI50 is 48.6 µM and > 100 µM. The TGI with HCT-116 colon is 21.6 µM and > 100 µM; with HCT-15 colon, > 100 µM; in the assay with NCI-H522 lung, > 100 µM; in the assay with OVCAR-4 ovarian it was 34.1 µM and > 100 µM; in the assay on SK-MEL-2 melanoma it was > 50 µM and 41.3 µM; with SK-OV-3 ovarian it was 48.8 µM and > 100 µM. Besides, the TGI in the assay on SR leukemia, in the assay on SW-620 colon and with TK-10 renal was > 100 µM throughout.

In the case of `CC(=O)OCC1OC(Sc2ccccn2)C=CC1OC(C)=O` (stereo unspecified), the TGI in the assay on HCT-116 colon, in the assay with NCI-H522 lung, in the assay with OVCAR-4 ovarian, in the assay on SK-OV-3 ovarian, in the assay on SR leukemia and in the assay with SW-620 colon was > 100 µM each time. The TGI in the assay with TK-10 renal is > 100 µM.

With `CC(O[Si](C)(C)C)C1C=CC(C)n2c(=O)n(-c3ccccc3)c(=O)n21` (stereo unspecified), the TGI in the assay on HCT-116 colon, in the assay on HCT-15 colon, with OVCAR-4 ovarian, in the assay on SK-MEL-2 melanoma, in the assay on SK-OV-3 ovarian and in the assay with SR leukemia was > 100 µM throughout. Further, the TGI with TK-10 renal was > 100 µM.

For the origin of these results see PubChem BioAssay (NCI).
